Data published in US20260138976A1 (Hoffmann-La Roche Inc., priority 2022, published 2026).

What was measured:
DGK α kinase = biological target: T1, DGK α kinase (Homo sapiens, UniProt P23743); assay: DGKalpha kinase ADP Glo assay run by Reaction Biology Corp.; format: biochemical; details: 2 nM kinase, 50 µM ATP, 500 μM DLG, 10-dose duplicate
T1 construct: purchased Reaction Biology Corp. (contract assay service)

DGK ζ kinase = biological target: T2, DGK ζ kinase (Homo sapiens, UniProt Q13574); assay: DGKzeta kinase ADP Glo assay run by Reaction Biology Corp.; format: biochemical; details: 2 nM kinase, 50 µM ATP, 500 μM DLG, 10-dose duplicate
T2 construct: purchased Reaction Biology Corp. (contract assay service)
Method: DGK α and ζ kinases use ATP to phosphorylate the substrate 1,2-dilauroyl-sn-glycerol (DLG). ATP is converted to ADP as a result of this enzymatic reaction.
After the kinase reaction, an ATP-depletion reagent is added to terminate the kinase reaction and deplete any remaining ATP, leaving only ADP. Second, a detection reagent is added to simultaneously convert ADP to ATP and allow the newly synthesized ATP to be converted to light using a coupled luciferase/luciferin reaction.
DGK α and ζ kinase ADP Glo assays were ran by Reaction Biology Corp., 1 Great Valley Parkway, Suite 2, Malvern, 19355, PA, USA. Information provided by the service provider are the following: DGK α and ζ kinases were used at 2 nM final concentration. Reactions were carried out at 50 µM ATP. 500 μM of the substrate DLG (Dilauroyl-sn-glycerol) was used.

MV-3 cells = assay: T-cell - TCB - MV3 killing assay; format: cell-based, human; details: for Emax: Homo sapiens, MV-3, 120 h, % TCL normalized: MCSP-TCB only = neutral control, 20 μM reference compound A1 = 100%, read-out: MSCP TCB killing MV-3 cells 5 d Emax (%); for EC50: primary human T-cells + MV-3 RFP cells, MCSP-TCB 1.5 pM-5 pM, 120 hours imaging, read-out: MSCP TCB killing MV-3 cells 5 d EC50
Method: All culturing steps are executed at 5% CO2, 37° C. and 95% humidity. MV-3 RFP cells are cultured in MV-3 medium (DMEM+10% FBS, 1× PenStrep and 0.5 μg/mL Puromycin) for at least 3 weeks. Cultured MV-3 cells at 80% confluency are washed once with PBS−− and trypsinized until detached. […] Cells are seeded with 100 μL/well into a 96-well plate (TTP, #92696), and placed for 40 minutes without moving at room temperature in order to achieve evenly distributed attachment of cells. Plates are then incubated until further use.
On the next day, expanded primary human T-cells are thawed and resuspended in T-cell medium to 4*10^6 cells/mL. For 3 hours, they are cultured in a 6-well plate with 6 mL per well at maximum. After culturing the T-cells, they are filtered through a cell strainer (Miltenyi Biotech, #130-041-407), counted again, and cell concentration is adjusted to 2*10^6 cells/mL.
MCSP-TCB or PBS are pre-diluted in T-cell medium (concentration depending on T-cell donor), 4 times more concentrated than the end-concentration. 60 μL/well of pre-dilutions are then distributed into a round bottom plate (Costar, #3799) according to plate layout. Compounds are added in a 9 pt dose response with the Tecan D300e Digital Dispenser, as well 4 times more concentrated than the end-concentration. DMSO concentration of all wells is adjusted to 0.8%, resulting in 0.2% as final concentration.
60 μL per well of T-cell suspension are added to the prepared round bottom plate and resuspended with a manual multichannel. 100 μL/well of the resuspended T-cell suspension including treatments are then transferred cautiously to the over-night cultured MV-3 cells according to plate layout. 100 μL T-cell medium only is added to the outer MV-3 wells only. Final compound DR is starting at 20 μM with a dilution factor of 3.333. Final TCB concentration is between 1.5 pM to 5 pM and was determined for each T-cell donor individually by running TCB titrations. For each donor, a TCB concentration was chosen which corresponds to 10-20% MV3 baseline cell killing in the absence of compound treatment. Positive control is the reference compound A1 which is added in a DR, as well as additional wells with only 20 μM. 20 μM of reference compound A1 represent the positive stimulator control, TCB only (DMSO wells) the neutral control.
After transfer of T-cells with treatment pre-dilutions, MV-3 cells are imaged by time-lapse microscopy using IncucyteZOOM™ (Essen BioScience, MI, USA). Imaging is performed every 3 hours for a total of 120 hours (10× objective, phase and red image channels, acquisition time 400 ms, Green/Red 4614 optical module). RFP object count per well is analysed in the IncucyteZOOM™ Software (Version 2019B Rev2) with a mask that was previously created and optimized for MV-3 cells. Raw data is exported as object count/well and values are normalized as % TCL compared to wells with MV-3 only, representing 100% growth and therefore 0% TCL.
Calculated % TCL values are analysed in Genedata Screener using Roche Normalization PCT_POS_CTRL with MCSP-TCB only set as Neutral Control and 20 μM of the reference compound A1 set as Stimulator Control/100%.
Induced TCL by compounds without TCB treatment or toxicity (observed in the PBS condition) were be flagged.

T2 sequence (Q13574 whole entry): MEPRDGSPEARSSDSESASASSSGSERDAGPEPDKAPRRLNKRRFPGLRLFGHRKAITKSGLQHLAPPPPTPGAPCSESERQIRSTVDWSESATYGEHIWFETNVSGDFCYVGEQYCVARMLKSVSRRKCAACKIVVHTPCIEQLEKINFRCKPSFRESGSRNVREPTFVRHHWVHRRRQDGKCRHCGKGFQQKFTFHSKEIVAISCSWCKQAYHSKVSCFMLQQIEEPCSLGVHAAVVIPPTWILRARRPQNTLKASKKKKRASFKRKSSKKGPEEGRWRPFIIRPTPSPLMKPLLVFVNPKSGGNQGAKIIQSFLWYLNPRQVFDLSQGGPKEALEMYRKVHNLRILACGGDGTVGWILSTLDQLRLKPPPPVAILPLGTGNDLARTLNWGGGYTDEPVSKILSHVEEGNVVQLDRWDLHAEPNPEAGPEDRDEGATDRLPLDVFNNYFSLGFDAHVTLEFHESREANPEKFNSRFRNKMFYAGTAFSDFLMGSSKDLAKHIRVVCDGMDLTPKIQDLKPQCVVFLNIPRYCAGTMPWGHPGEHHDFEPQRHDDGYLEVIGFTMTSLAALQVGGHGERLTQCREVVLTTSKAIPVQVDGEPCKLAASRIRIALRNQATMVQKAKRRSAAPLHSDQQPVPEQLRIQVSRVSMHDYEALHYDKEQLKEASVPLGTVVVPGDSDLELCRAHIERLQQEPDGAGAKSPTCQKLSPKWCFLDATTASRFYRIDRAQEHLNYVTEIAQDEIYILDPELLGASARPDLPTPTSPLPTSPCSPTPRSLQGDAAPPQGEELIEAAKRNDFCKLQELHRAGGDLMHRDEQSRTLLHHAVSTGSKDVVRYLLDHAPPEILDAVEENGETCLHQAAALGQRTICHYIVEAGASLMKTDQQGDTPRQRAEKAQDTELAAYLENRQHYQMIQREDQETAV
T1 sequence (P23743 whole entry): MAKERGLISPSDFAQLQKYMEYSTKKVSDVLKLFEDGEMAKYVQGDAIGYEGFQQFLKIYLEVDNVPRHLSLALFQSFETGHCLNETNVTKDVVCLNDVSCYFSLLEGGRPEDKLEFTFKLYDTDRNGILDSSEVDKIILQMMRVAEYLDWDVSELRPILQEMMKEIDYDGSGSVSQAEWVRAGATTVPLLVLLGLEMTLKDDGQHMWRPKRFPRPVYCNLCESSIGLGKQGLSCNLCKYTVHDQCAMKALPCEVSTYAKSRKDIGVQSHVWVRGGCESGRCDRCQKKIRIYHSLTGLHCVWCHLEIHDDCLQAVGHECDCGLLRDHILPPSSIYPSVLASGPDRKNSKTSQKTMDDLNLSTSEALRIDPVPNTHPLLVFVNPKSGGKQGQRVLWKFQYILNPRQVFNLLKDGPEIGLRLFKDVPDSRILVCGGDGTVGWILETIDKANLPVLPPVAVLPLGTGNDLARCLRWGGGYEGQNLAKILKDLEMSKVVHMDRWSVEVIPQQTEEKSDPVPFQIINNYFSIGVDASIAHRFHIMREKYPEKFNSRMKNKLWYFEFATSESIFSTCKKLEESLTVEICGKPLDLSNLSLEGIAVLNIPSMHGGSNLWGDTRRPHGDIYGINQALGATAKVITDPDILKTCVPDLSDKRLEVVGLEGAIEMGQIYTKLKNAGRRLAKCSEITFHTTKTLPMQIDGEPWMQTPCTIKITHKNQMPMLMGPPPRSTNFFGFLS

IC50 (DGK α kinase) [nM] | IC50 (DGK ζ kinase) [nM] | SMILES | Emax (MV-3 cells) [%] | EC50 (MV-3 cells) [nM]
1410 | 439 | Cc1noc(-c2ccc(CN3C(=O)[C@@H](N)CS(=O)(=O)c4ccc(-c5nnc(C(C)(C)C)o5)cc43)cc2)n1 [Example 20, (3R)-3-amino-7-(5-tert-butyl-1,3,4-oxadiazol-2-yl)-5-[[4-(3-methyl-1,2,4-oxadiazol-5-yl)phenyl]methyl]-1,1-dioxo-2,3-dihydro-1λ^6,5-benzothiazepin-4-one] | – | –
238 | 71.3 | CC(C)(C#N)c1nnc(-c2ccc3c(c2)N(Cc2ccc(-c4ccc(C(F)(F)F)cn4)cc2)C(=O)[C@@H](N)CS3(=O)=O)o1 [Example 47] | 103 | 280
63.6 | 101 | C[C@@](N)(c1nnc(-c2ccc3c(c2)N(Cc2ccc(-c4noc(C(F)(F)F)n4)cc2)C(=O)[C@@H](N)CS3(=O)=O)o1)C(F)(F)F [Example 52, (3R)-3-amino-7-[5-[(1R)-1-amino-2,2,2-trifluoro-1-methyl-ethyl]-1,3,4-oxadiazol-2-yl]-1,1-dioxo-5-[[4-[5-(trifluoromethyl)-1,2,4-oxadiazol-3-yl]phenyl]methyl]-2,3-dihydro-1λ^6,5-benzothiazepin-4-one] | 95 | 52
160 | 92.8 | C[C@](N)(c1nnc(-c2ccc3c(c2)N(Cc2ccc(-c4noc(C(F)(F)F)n4)cc2)C(=O)[C@@H](N)CS3(=O)=O)o1)C(F)(F)F [Example 53, (3R)-3-amino-7-[5-[(1S)-1-amino-2,2,2-trifluoro-1-methyl-ethyl]-1,3,4-oxadiazol-2-yl]-1,1-dioxo-5-[[4-[5-(trifluoromethyl)-1,2,4-oxadiazol-3-yl]phenyl]methyl]-2,3-dihydro-1λ^6,5-benzothiazepin-4-one] | 98 | 137
105 | 25.4 | N[C@H]1CS(=O)(=O)c2ccc(-c3nnc(N4CCOC(F)(F)C4)o3)cc2N(Cc2ccc(-c3noc(C(F)(F)F)n3)cc2)C1=O [Example 78, (3R)-3-amino-7-[5-(2,2-difluoromorpholin-4-yl)-1,3,4-oxadiazol-2-yl]-1,1-dioxo-5-[[4-[5-(trifluoromethyl)-1,2,4-oxadiazol-3-yl]phenyl]methyl]-2,3-dihydro-1λ^6,5-benzothiazepin-4-one] | 112 | 93
226 | 53.5 | COc1ccc(-c2ccc(CN3C(=O)[C@@H](N)CS(=O)(=O)c4ccc(-c5nnc(N(C)CC(F)(F)F)o5)cc43)cc2)cc1 [Example 81, (3R)-3-amino-5-[[4-(4-methoxyphenyl)phenyl]methyl]-7-[5-[methyl(2,2,2-trifluoroethyl)amino]-1,3,4-oxadiazol-2-yl]-1,1-dioxo-2,3-dihydro-1λ^6,5-benzothiazepin-4-one] | 98 | 343
– | – | CC(C)(C)c1nnc(-c2ccc3c(c2)N(Cc2ccc(-n4cnc(C(F)(F)F)n4)cc2)C(=O)[C@@H](N)CS3(=O)=O)o1 [Example 91, (3R)-3-amino-7-(5-tert-butyl-1,3,4-oxadiazol-2-yl)-1,1-dioxo-5-[[4-[3-(trifluoromethyl)-1,2,4-triazol-1-yl]phenyl]methyl]-2,3-dihydro-126,5-benzothiazepin-4-one] | 96 | 237
– | – | CC(C)(C#N)c1nnc(-c2ccc3c(c2)N(Cc2ccc(-n4ccc(C(F)(F)F)n4)cc2)C(=O)[C@@H](N)CS3(=O)=O)o1 [Example 121, 2-[5-[(3R)-3-amino-1,1,4-trioxo-5-[[4-[3-(trifluoromethyl)pyrazol-1-yl]phenyl]methyl]-2,3-dihydro-1λ^6,5-benzothiazepin-7-yl]-1,3,4-oxadiazol-2-yl]-2-methyl-propanenitrile] | 98 | 109
23.3 | 56.7 | CC(C)(C#N)c1nnc(-c2ccc3c(c2)N(Cc2ccc(-c4ccc(OC(F)(F)F)cn4)cc2)C(=O)[C@@H](N)CS3(=O)=O)o1 [Example 124] | 100 | 23
– | – | C[C@@](N)(c1nnc(-c2ccc3c(c2)N(Cc2ccc(-n4ccc(C(F)(F)F)n4)cc2)C(=O)[C@@H](N)CS3(=O)=O)o1)C(F)(F)F [Example 157, (3R)-3-amino-7-[5-[(1R)-1-amino-2,2,2-trifluoro-1-methyl-ethyl]-1,3,4-oxadiazol-2-yl]-1,1-dioxo-5-[[4-[3-(trifluoromethyl)pyrazol-1-yl]phenyl]methyl]-2,3-dihydro-1λ^6,5-benzothiazepin-4-one] | 100 | 119
– | – | COC(=O)N1CC2CC(c3nnc(-c4ccc5c(c4)N(Cc4ccc(-c6ccc(C(F)(F)F)cn6)cc4)C(=O)[C@@H](N)CS5(=O)=O)o3)(C2)C1 [Example 159, methyl 1-[5-[(3R)-3-amino-1,1,4-trioxo-5-[[4-[5-(trifluoromethyl)-2-pyridyl]phenyl]methyl]-2,3-dihydro-1λ^6,5-benzothiazepin-7-yl]-1,3,4-oxadiazol-2-yl]-3-azabicyclo[3.1.1]heptane-3-carboxylate] | 102 | 166
– | – | CC(C)(c1nnc(-c2ccc3c(c2)N(Cc2ccc(-c4noc(C(F)(F)F)n4)cc2)C(=O)[C@@H](N)CS3(=O)=O)o1)C(F)(F)F [Example 166] | 102 | 10
